# Assay results from patent publication EP4748844A1, “AZETIDINE COMPOUND AND MEDICAL USE THEREOF” (SHANGHAI INSTITUTE OF MATERIA MEDICA, CHINESE ACADEMY OF …, priority 2023, dated 2025).
# pIC50: −log10 of the molar value.
# Legend:
# [1] = system: DMXAA induced ISG gene expression in mouse RAW-Lucia cells; assay: Inhibition of DMXAA-induced ISG gene expression in mouse RAW-Lucia cells (QUANTI-Luc); type: cell-based; conditions: STING agonist DMXAA 50 µM, incubated for 24 hours
# Experimental: 10 µL of compound diluted with PBS/physiological saline was added to each well of a 96 well cell culture plate. The STING agonist was DMXAA, which was added to the counted cell suspension at a final concentration of 50 µM. For the control group without compounds, 10 µL of PBS/physiological saline containing 2% DMSO was added. 3 replicate wells were set in each group. RAW-Lucia cells were counted and adjusted to a cell concentration of 4×10^5/mL, and […] of cells were added to each well for incubation. Therefore, the final volume of each test well was 200 µL, the content of DMSO was 0.1%, and the final concentration of the compound tested was 10/3.3/1.1/0.4/0.13/0.04/0.013/0.004 µM. The final concentration of STING agonist DMXAA was 50 µM. The mixture was incubated for 24 hours. In addition, 200 µL of culture medium was added to the blank group. 3 replicate wells were set in each group.
# After 24 hours, 20 µL of culture medium was taken from each well and transferred to a new 96 well plate with photopermeable bottom. 50 µL of the luciferase detection reagent QUANTI-Luc™ was added, and the […] was immediately measured (avoid light).
# Result analysis: Inhibition rate (%) = (Con(Lum)−Treated(Lum))/Con(Lum) × 100% [formula]
# (§1) The IC50 calculation of inhibitors was implemented using the Graphpad Prism 8 software's calculation method log (inhibitor) vs. response - Variable slope (four parameters), with a constrain interval of 0-100.
# [2] = system: ISG gene expression induced by MSA-2 in human THP1-Blue-ISG cells; assay: Inhibition of MSA-2-induced ISG gene expression in human THP1-Blue-ISG cells (Quanti-Blue, OD650); type: cell-based; conditions: STING agonist MSA-2 10 µM, incubated for 24 hours
# Experimental: 10 µL of compound diluted with PBS/physiological saline was added to each well of a 96 well cell culture plate. The STING agonist was MSA-2, which was added to the counted cell suspension at a final concentration of 10 µM. For the control group without compounds, 10 µL of PBS/physiological saline containing 2% DMSO was added. 3 replicate wells were set in each group. THP1-Blue-ISG cells were counted and adjusted to a cell concentration of 4× 10^5/mL, and 190 µL of cells containing STING agonist were added to each well for incubation. Therefore, the final volume of each test well was 200 µL, the content of DMSO was 0.1%, and the final concentration of the compound tested was 10/3.3/1.1/0.4/0.13/0.04/0.013/0.004 µM, incubated for 24 hours. In addition, 190 µL of cells without STING agonist and 10 µL of physiological saline containing 2% DMSO were added to the blank group. 3 replicate wells were set in each group.
# After 24 hours, 20 µL of culture medium was taken from each well and transferred to a new 96 well plate. 180 µL of chromogenic solution Quanti-Blue was added. The plate was placed in a 37 °C incubator. After 2 hours, the OD650 values were measured.
# Result analysis: Inhibition rate (%) = (Con(OD650)−Treated(OD650))/Con(OD650) × 100% [formula]
# as §1
pIC50 [1],pIC50 [2],SMILES
7.80,6.53,"CC1(C)C(=O)N(CC2CN(c3ccsc3)C2)c2cc(C(=O)Nc3c[nH]c4ccccc34)ccc21 [Example I-20, N-(1H-indol-3-yl)-3,3-dimethyl-2-oxo-1-((1-(thien-3-yl)azetidin-3-yl)methyl)indolin-6-carboxamide]"
7.10,7.25,"O=C(Nc1c[nH]c2ccccc12)c1ccc2c(c1)N(Cc1ccsc1)C(=O)CS2 [Example I-55, N-(1H-indol-3-yl)-3-oxo-4-(thien-3-ylmethyl)-3,4-dihydro-2H-benzothien[b][1,4]thiazin-6-carboxamide]"
6.79,5.64,"O=C(Nc1ccc2c(c1)N(Cc1ccccc1)C(=O)CS2)Nc1c[nH]c2ccccc12 [A, reference compound]"
< 6.00,< 5.00,"CC1(C)C(=O)N(Cc2ccsc2)c2cc(NC(=O)c3c[nH]c4ccccc34)ccc21 [B, reference compound]"
7.72,7.25,CC1(C)C(=O)N(CC2CN(c3cc(Cl)cc(C(F)(F)F)c3)C2)c2cc(C(=O)Nc3c[nH]c4ccccc34)ccc21 [Example I-18]
7.42,6.92,"O=C(Nc1c[nH]c2ccccc12)c1ccc2c(c1)N(CC1CC1)C(=O)CS2 [Example I-62, 4-(cyclopropylmethyl)-N-(1H-indol-3-yl)-3-oxo-3,4-dihydro-2H-benzo[b][1,4]thiazin-6-carboxamide]"
7.48,6.41,"O=C(Nc1c[nH]c2ccccc12)c1cc2c(s1)SCC(=O)N2Cc1ccccc1 [Example I-6, 1-benzyl-N-(1H-indol-3-yl)-2-oxo-2,3-dihydro-1H-thieno[2,3-b][1,4]thiazin-6-carboxamide]"
8.13,6.48,"CC1(C)C(=O)N(CC2CC2)c2cc(C(=O)Nc3c[nH]c4ccccc34)ccc21 [Example I-78, 1-cyclopropylmethyl-N-(1H-indol-3-yl)-3,3-dimethyl-2-oxoindolin-6-carboxamide]"
7.21,6.88,"COc1cccc(N2CC(CN3C(=O)C(C)(C)c4ccc(C(=O)Nc5c[nH]c6ccccc56)cc43)C2)c1 [Example I-15, N-(1H-indol-3-yl)-1-((1-3-methoxyphenylazetidin-3-yl)methyl)-3,3-dimethyl-2-oxoindolin-6-carboxamide]"
7.64,6.74,"CC1(C)C(=O)N(CC2CN(c3ccccc3)C2)c2cc(C(=O)Nc3c[nH]c4ccccc34)ccc21 [Example I-11, N-(1H-indol-3-yl)-3,3-dimethyl-2-oxo-1-((1-phenylazetidin-3-yl)methyl)indolin-6-carboxamide]"
8.17,7.49,CC1(C)C(=O)N(CC2CN(c3cc(F)cc(C(F)(F)F)c3)C2)c2cc(C(=O)Nc3c[nH]c4ccccc34)ccc21 [Example I-17]
